Columns and labels:
Format in all cases: biochemical
O-glycosylated tau = assay: Nanogap biosensor impedance of microbeads bound to tau protein, reacted with O-GlcNAc (CTD110.6) antibody
Experimental: (§1) A tosylate-treated magnetic bead (Thermo Fisher, Dynabead M-280, diameter 2.8 μm, 14203) and a tau protein binding antibody (abcam, Anti-Tau (Phosphor S262) antibody, ab64193, 50 μl/250 μl) are inserted in a 0.1 M PBS buffer and placed in a 37° C. incubator, and incubated on a roll mixer for 24 hours.
(§2) Next, the magnetic bead bound to the tau protein binding antibody are washed with 0.4% Block ACE (AbD serotec, USA) and blocked with 0.2 M tris buffer. 30 mg/mL of the microbead solution was stored in PBST (Phosphate Buffered Saline with Tween-20, 0.01% Tween-20) containing 0.4% Block Ace.
(§3) The tau protein at a concentration of 5250 ng/mL was diluted 1/10 in various concentrations (0.5 fg/mL to 50 pg/mL) using 0.1% PBST. Tau protein was treated with Thiamet G, an O-glycosylation drug, if necessary.
(§4) The microbead bound to the tau protein binding antibody were diluted to 300 μl/ml using 0.1% PBST, and the tau protein (diluent) and the microbead (diluent) were mixed at a concentration of 1:2 and reacted in a refrigerator for 22 hours.
(§5) Next, the microbead bound to the tau protein is washed twice with 0.1% PBST and washed twice with PBS (Phosphate Buffered Saline). Thereafter, it is diluted to a bead concentration of 60 μl/ml using PBS.
(§6) A microbead (300 μl/ml) bound to tau protein were prepared in the same manner as in Synthesis Example 1.
The microbead is mixed with 10.4 ng of an antibody capable of binding O-glycosylated proteins (Cell signaling, O-GlcNAc (CTD110.6) Mouse mAB, #9875) and reacted in a refrigerator for 22 hours.
The microbead bound to the O-glycosylated tau-binding antibody is washed twice with 0.1% PBST, washed twice with PBS, and diluted to a bead concentration of 60 μl/ml using PBS.
(§7) The samples thus obtained were measured for impedance using a biosensor array (10×10 or 20×20) with an electrode interval of 0.7 μm. […] In addition, impedance change rate is a value (%) obtained by dividing a difference between the impedance Zneg of Neg and the impedance BAT or BAT2 of divided by the impedance Zneg of Neg and multiplied by 100. Impedance change rate difference is defined as a value obtained by subtracting the impedance change rate of BAT from the impedance change rate of BAT2.

tau protein = assay: Ratio of impedance change due to phosphorylated tau (P) and O-glycosylated tau (O); settings: 100 uM Thiamet G; tau protein 0.5 pg/ml
Experimental: as §7

phosphorylated tau = assay: Nanogap biosensor impedance of microbeads bound to tau protein, reacted with AT8 antibody; settings: 100 uM Thiamet G, tau protein 0.5 pg/ml
Experimental: as §1, §2, §3, §4, §5, §6
The microbead is mixed with 10 ng of an antibody capable of binding to phosphorylated tau protein (Thermo Fisher, Phospho-Tau (Ser202, Thr205) Antibody (AT8), MN1020) and reacted in a refrigerator for 22 hours.
The microbead bound to the phosphorylated tau-binding antibody is washed twice with 0.1% PBST, washed twice with PBS, and diluted to a bead concentration of 60 μl/ml using PBS.
as §7, with “Impedance change rate difference is defined as a value obtained by subtracting the impedance change rate of BAT from the impedance change rate of BAT2.” left out

[1] = 10 uM Thiamet G, tau protein 0.5 pg/ml, O-GlcNAc
[2] = 30 uM Thiamet G, tau protein 0.5 pg/ml, O-GlcNAc
[3] = 100 uM Thiamet G, tau protein 0.5 pg/ml, O-GlcNAc

CCN=C1N[C@@H]2[C@@H](O)[C@H](O)[C@@H](CO)O[C@@H]2S1 [Thiamet G]
BAT-BAT2 (O-glycosylated tau; [1]): 4.3 MΩ | Impedance change rate difference (O-glycosylated tau; [1]): 1.62% | BAT-BAT2 (O-glycosylated tau; [2]): 11.6 MΩ | Impedance change rate difference (O-glycosylated tau; [2]): 4.39% | BAT-BAT2 (O-glycosylated tau; [3]): 30.5 MΩ | Impedance change rate difference (O-glycosylated tau; [3]): 11.54% | O ((BAT-BAT2)/Neg) (O-glycosylated tau; [3]): 0.1154 | Impedance change rate difference (O-glycosylated tau; 100 uM Thiamet G, tau protein 0.5 fg/ml): 7.5% | Impedance change rate difference (O-glycosylated tau; 100 uM Thiamet G, tau protein 5.2 fg/ml): 20.4% | Impedance change rate difference (O-glycosylated tau; 100 uM Thiamet G, tau protein 52.4 fg/ml): 28.9% | Impedance change rate difference (O-glycosylated tau; 100 uM Thiamet G, tau protein 524 fg/ml): 32.8% | Impedance change rate difference for the microbead combined with O-glycosylated antibody (O-glycosylated tau; when the concentration of Thiamet G was increased (Tables 1-1 and 1-2)): greatly increased | P/O (tau protein): 0.111 | BAT-BAT2 (phosphorylated tau): 0.59 MΩ | Impedance change rate difference (phosphorylated tau): 1.28% | P ((BAT2-BAT)/Neg) (phosphorylated tau): 0.0128

Reference: patent US10520514B2, “Method for monitoring post-translational modification of protein” (KOREA INSTITUTE OF SCIENCE AND TECHNOLOGY, priority 2017, dated 2019)
